From patent US9139523B2, “5-HT2B receptor antagonists” (Janssen Pharmaceutica, NV, priority 2010, dated 2015)
Read-outs that look alike come from different tables or passages of the source.

Key:
[1] = system: anesthetized dogs (Beagles); assay: Cardio-hemodynamic, cardio-electrophysiological, EEG and pulmonary effects in ventilated, anesthetized dogs; format: in vivo, dog; conditions: for Median plasma level: 5-min i.v. infusion
Description: The animals were anesthetized with a mixture of 0.015 mg/kg i.v. scopolamine and 0.075 mg/kg i.v. lofentanil, and relaxed with succinylcholine (5 mg/kg i.v.) followed by a continuous i.v. infusion of 1.5 mg/kg/h of etomidate and small additional doses of fentanyl (0.025 mg/kg i.v.) were given at 60 min intervals. The animals were ventilated and prepared for measurements of the surface ECG, aortic-, pulmonary- and left ventricular blood pressure, carotid blood flow, monophasic action potential, body temperature, blood gasses and EEG (see Van Deuren et al, J Pharmacol Toxicol Methods; 2009; 60: 11-23). Compound (−)-17 was dissolved in 20% hydroxypropyl-cyclodextrin with NaOH, HCl and mannitol in pyrogen-free water and administered intravenously (1 ml/kg) in increasing doses (0.16, 0.32, 0.63, 1.25, 2.5 and 5 mg/kg) over a period of 5 min at 30-min intervals. Plasma concentrations of Compound (−)-17 were measured before and at the end of each infusion. Corresponding volumes of vehicle were administered according to the same protocol in a second group of animals.

[2] = system: monocrotaline-induced pulmonary arterial hypertension; assay: Monocrotaline-induced pulmonary arterial hypertension in the rat; format: in vivo; conditions: for MAP / PAAT / RV/(LV + S) / RVP: Day 21, mean ± SD
Description: (§1) Compound (−)-17 was tested in monocrotaline-induced pulmonary arterial hypertension in the rat (see e.g., Stenmark et al, 2009, Am J Physiol Lung Cell Mol Physiol 297, L1013-L1032). Measurements included: mean arterial blood pressure and right ventricular pressure in vivo, ratio of right ventricular weight to left ventricular weight plus septum as an index of right ventricular hypertrophy, pulmonary artery acceleration time, and histological assessement of muscularization of pulmonary arteries.
(§2) Monocrotaline was dissolved in 1 N HCl and then into distilled water, and pH was adjusted to 7.4 using NaOH. A single dose of 60 mg/kg monocrotaline was administered subcutaneously on day 0 to three groups of male Sprague Dawley rats. The test article Compound (−)-17 was dissolved in 20% hydroxypropyl-beta-cyclodextrin with NaOH, HCl and mannitol in pyrogen-free water and administered orally by gavage (10 ml/kg) once daily from day 1 for 21 days at 10 mg/kg and 50 mg/kg. […] Corresponding volumes of 20% hydroxypropyl-beta-cyclodextrin vehicle were administered orally according to the same protocol in a third group of animals.

[3] = as above; format: in vivo; conditions: male, Sprague Dawley, in vivo, po, rat, 2 hours post-dosing at day 21, read-out: mean plasma concentration
Description: as §1, §2

[4] = 10 mg/kg p.o. once daily 21 days
[5] = 50 mg/kg p.o. once daily 21 days
[6] = rat, 10 mg and 50 mg p.o. once daily, three weeks

## COc1cc(N)c(Cl)cc1C(=O)NC1CCN(CCCOc2ccc(F)cc2)CC1(F)F (single isomer, unassigned) [Compound (−)-17, 4-amino-5-chloro-N-{3,3-difluoro-1-[3-(4-fluorophenoxy)-propyl]-piperidin-4-yl}-2-methoxybenzamide]
[1]; dog i.v. 0.16 mg/kg @ 5′
  DPP, percentage change relative to vehicle: +3%
  HR, percentage change relative to vehicle: −4%
  LVdp/dtmax, percentage change relative to vehicle: −1%
  MBP, percentage change relative to vehicle: +2%
  PQ, percentage change relative to vehicle: −1%
  QRS, percentage change relative to vehicle: +1%
  QTcV, percentage change relative to vehicle: +2%
  SPP, percentage change relative to vehicle: +2%
[1]; dog i.v. 0.16 mg/kg @ 30′
  DPP, percentage change relative to vehicle: −3%
  HR, percentage change relative to vehicle: −5%
  LVdp/dtmax, percentage change relative to vehicle: +0%
  MBP, percentage change relative to vehicle: +3%
  PQ, percentage change relative to vehicle: −0%
  QRS, percentage change relative to vehicle: +2%
  QTcV, percentage change relative to vehicle: +4%
  SPP, percentage change relative to vehicle: +5%
[1]; dog i.v. 0.32 mg/kg @ 5′
  DPP, percentage change relative to vehicle: +0%
  HR, percentage change relative to vehicle: −5%
  LVdp/dtmax, percentage change relative to vehicle: +0%
  MBP, percentage change relative to vehicle: +5%
  PQ, percentage change relative to vehicle: −2%
  QRS, percentage change relative to vehicle: +3%
  QTcV, percentage change relative to vehicle: +2%
  SPP, percentage change relative to vehicle: +11%
[1]; dog i.v. 0.32 mg/kg @ 30′
  DPP, percentage change relative to vehicle: −8%
  HR, percentage change relative to vehicle: +3%
  LVdp/dtmax, percentage change relative to vehicle: −4%
  MBP, percentage change relative to vehicle: +2%
  PQ, percentage change relative to vehicle: −2%
  QRS, percentage change relative to vehicle: +4%
  QTcV, percentage change relative to vehicle: +1%
  SPP, percentage change relative to vehicle: −3%
[1]; dog i.v. 0.63 mg/kg @ 5′
  DPP, percentage change relative to vehicle: +0%
  HR, percentage change relative to vehicle: −0%
  LVdp/dtmax, percentage change relative to vehicle: −3%
  MBP, percentage change relative to vehicle: +6%
  PQ, percentage change relative to vehicle: +3%
  QRS, percentage change relative to vehicle: +4%
  QTcV, percentage change relative to vehicle: +1%
  SPP, percentage change relative to vehicle: −2%
[1]; dog i.v. 0.63 mg/kg @ 30′
  DPP, percentage change relative to vehicle: −9%
  HR, percentage change relative to vehicle: +4%
  LVdp/dtmax, percentage change relative to vehicle: −2%
  MBP, percentage change relative to vehicle: +2%
  PQ, percentage change relative to vehicle: −0%
  QRS, percentage change relative to vehicle: +1%
  QTcV, percentage change relative to vehicle: +4%
  SPP, percentage change relative to vehicle: −1%
[1]; dog i.v. 1.25 mg/kg @ 5′
  DPP, percentage change relative to vehicle: −7%
  HR, percentage change relative to vehicle: −0%
  LVdp/dtmax, percentage change relative to vehicle: −1%
  MBP, percentage change relative to vehicle: +10%
  PQ, percentage change relative to vehicle: +2%
  QRS, percentage change relative to vehicle: +4%
  QTcV, percentage change relative to vehicle: +2%
  SPP, percentage change relative to vehicle: −1%
[1]; dog i.v. 1.25 mg/kg @ 30′
  DPP, percentage change relative to vehicle: −12%
  HR, percentage change relative to vehicle: −3%
  LVdp/dtmax, percentage change relative to vehicle: −5%
  MBP, percentage change relative to vehicle: +0%
  PQ, percentage change relative to vehicle: +2%
  QRS, percentage change relative to vehicle: +2%
  QTcV, percentage change relative to vehicle: +1%
  SPP, percentage change relative to vehicle: −9%
[1]; dog i.v. 2.5 mg/kg @ 5′
  DPP, percentage change relative to vehicle: +1%
  HR, percentage change relative to vehicle: −5%
  LVdp/dtmax, percentage change relative to vehicle: −8%
  PQ, percentage change relative to vehicle: +6%
  QRS, percentage change relative to vehicle: +2%
  QTcV, percentage change relative to vehicle: −3%
  SPP, percentage change relative to vehicle: −1%
[1]; dog i.v. 2.5 mg/kg @ 30′
  DPP, percentage change relative to vehicle: −24%
  HR, percentage change relative to vehicle: −4%
  LVdp/dtmax, percentage change relative to vehicle: +2%
  MBP, percentage change relative to vehicle: +0%
  PQ, percentage change relative to vehicle: +2%
  QRS, percentage change relative to vehicle: +3%
  QTcV, percentage change relative to vehicle: −1%
  SPP, percentage change relative to vehicle: −15%
[1]; dog i.v. 5 mg/kg @ 5′
  DPP, percentage change relative to vehicle: +17%
  HR, percentage change relative to vehicle: −15%
  LVdp/dtmax, percentage change relative to vehicle: −11%
  PQ, percentage change relative to vehicle: +2%
  QRS, percentage change relative to vehicle: +6%
  QTcV, percentage change relative to vehicle: −3%
  SPP, percentage change relative to vehicle: −10%
[1]; dog i.v. 5 mg/kg @ 30′
  DPP, percentage change relative to vehicle: −5%
  HR, percentage change relative to vehicle: −14%
  LVdp/dtmax, percentage change relative to vehicle: +2%
  MBP, percentage change relative to vehicle: +0%
  QRS, percentage change relative to vehicle: +3%
  QTcV, percentage change relative to vehicle: −2%
  SPP, percentage change relative to vehicle: −7%
[1]; dog, 0.16 up to 5 mg/kg i.v., relative to vehicle
  effect on heart rate, pulmonary artery pressure, LV end diastolic pressure, cardiac output, stroke volume, pressure rate product, PQ and QRS, lung function, body temperature, EEG: no relevant effect
[1]; dog, dose 0.16 mg/kg (increasing doses, 30-min intervals)
  Median plasma level: 725 ng/mL
[1]; dog, dose 0.32 mg/kg (increasing doses, 30-min intervals)
  Median plasma level: 1420 ng/mL
[1]; dog, dose 0.64 mg/kg (increasing doses, 30-min intervals)
  Median plasma level: 2540 ng/mL
[1]; dog, at 2.5 mg/kg i.v.
  LV dp/dtmax/pd: started to decrease
[1]; dog, at 5 mg/kg i.v.
  duration of QTc VDW and QTc VcT: minor decrease
[1]; dog, from 1.25 mg/kg i.v. onwards
  arterial blood pressure, vascular resistance (systemic and common carotid) and Tau: started to increase
[2]; [4]
  MAP: 93.7 ± 14.11 mmHg
  PAAT: 15.91 ± 2.76 ms
  RV/(LV + S): 0.46 ± 0.08
  RVP: 43.18 ± 7.38 mmHg
[2]; [5]
  MAP: 97.58 ± 9.74 mmHg
  PAAT: 15.42 ± 2.62 ms
  RV/(LV + S): 0.41 ± 0.08
  RVP: 42.85 ± 11.55 mmHg
[2]; rat, 10 mg and 50 mg p.o. once daily
  toxicity of three-week treatment: non-toxic
[2]; [6]
  effect on mean arterial blood pressure (MAP): no effect
  effect on pulmonary artery acceleration time (PAAT): increased
  effect on right ventricular hypertrophy RV/(LV+S): reduced
  effect on right ventricular pressure (RVP): reduced
[2]; rat, 10 mg p.o. three weeks (P<0.005)
  monocrotaline-induced thickening of wall of small pulmonary arteries: reduced
[2]; rat, 50 mg/kg p.o. three weeks (P=0.0539)
  monocrotaline-induced thickening of wall of small pulmonary arteries: reduced
[3]; 10 mg/kg, 10 mg p.o. once daily
  concentration at 2 h: ~80 ng/mL
[3]; 50 mg/kg, 50 mg p.o. once daily
  concentration at 2 h: 1000 ng/mL
